Measurements reported in patent publication US4789736A, “Complexes of technetium-99m with propylene amine oximes” (Amersham International plc, priority 1985, dated 1988).

Assays:
[1] = Animal biodistribution of Tc-99m complexes of ligands, no separation of stereoisomers (Example 22); format: in vivo, rats; details: i.v. rats
Protocol: The ratio of diastereoisomers in the Tc-99m complexes used in this experiment is not known.
The results at 2 minutes and 1 hour p.i. are the mean of 3 animals.
The results at 2 hours p.i. are the mean of 2 animals.

[2] = Clinical comparison of dl and meso diastereoisomers of Compound 1, whole body scanning (Example 25a); format: in vivo, normal volunteer subjects (human); details: 20 minutes p.i.; mean; human
Protocol: All clinical studies, involving comparisons between the Tc-99m complexes of dl and meso, and d,l and dl stereoisomers of Compound 1 were conducted in normal volunteer subjects at Aberdeen Royal Infirmary.
(a) Comparison of dl and meso diastereoisomers of Compound 1
Data is then taken from area of interest studies employing a whole body scanning device.

[3] = Rat biodistribution of Tc-99m complexes from isolated stereoisomers (Example 24); details: for % id/organ, Blood / % id/organ, Brain / % id/organ, Heart / % id/organ, Liver: (a) diastereoisomers, rats, mean from 3 animals; for difference in brain uptake, dl-isomer versus meso-isomer: see Example 24
Protocol: 0.1 ml of the Tc-99m complex solution was administered by intravenous injection (lateral tail vein) to each of five or six rats (140-220 g). The injected dose was equivalent to approximately 1 mCi of Tc-99m. Three rats were sacrificed at 2 minutes post injection, and 3 at 1 hour or 2 at 2 hours post injection. At dissection, the organs and blood samples shown in the following table were taken, and assayed for radioactivity. The uptake in each organ or tissue was calculated as a percentage of the total activity recovered.
Data in Tables (a) and (b) are the mean from 3 animals at each time point.

[4] = Rat biodistribution of Tc-99m complexes of separated diastereoisomers of compound 1 (Example 23); format: in vivo, rats; details: for % id/organ, Blood / % id/organ, Brain / % id/organ, Liver: rats
From the text: The experiment of Example 22 was repeated using the separated diastereoisomers of compound 1. The results are given in the Table below and should be compared to those for compound 1 (the mixture) in the Table in […].

[5] = Clinical comparison of d, l and dl stereoisomers of Compound 1 (Example 25b); format: in vivo, normal volunteers (human); details: 30 minutes p.i.; mean of three studies; human
Protocol: The following table gives the mean of three studies for each stereoisomer, of percentage of injected dose in normal volunteers at 30 minutes p.i.

Compound | % id/organ, Blood ([1]; 2 min pi, mean of 3 animals) [% id/organ] | % id/organ, Brain ([1]; 2 min pi, mean of 3 animals) [% id/organ] | % id/organ, Heart ([1]; 2 min pi, mean of 3 animals) [% id/organ] | % id/organ, Liver ([1]; 2 min pi, mean of 3 animals) [% id/organ] | % id/organ, Blood ([1]; 1 hr pi, mean of 3 animals) [% id/organ] | % id/organ, Brain ([1]; 1 hr pi, mean of 3 animals) [% id/organ] | % id/organ, Liver ([1]; 1 hr pi, mean of 3 animals) [% id/organ] | % id/organ, Blood ([3]; 2 mins pi) [% id/organ] | % id/organ, Brain ([3]; 2 mins pi) [% id/organ] | % id/organ, Heart ([3]; 2 mins pi) [% id/organ] | % id/organ, Liver ([3]; 2 mins pi) [% id/organ] | % id/organ, Blood ([3]; 1 hr pi) [% id/organ] | % id/organ, Brain ([3]; 1 hr pi) [% id/organ] | % id/organ, Heart ([3]; 1 hr pi) [% id/organ] | % id/organ, Liver ([3]; 1 hr pi) [% id/organ] | also measured
CC(=NO)C(C)NCC(C)CNC(C)C(C)=NO (centres unmarked) [Compound 11, 4,8-Diaza-3,6,9-trimethylundecane-2,10-dione bis oxime] | 11.9 | 1.3 | 0.8 | 12.3 | 4.7 | 1.0 | 10.2 |  |  |  |  |  |  |  |  | % id/organ, Heart ([1]; 1 hr pi, mean of 3 animals): 0.4 % id/organ
CCCC(=NO)C(C)NCCCNC(C)C(CCC)=NO (centres unmarked) [Compound 5, 6,10-Diaza-5,11-dimethylpentadecane-4,12-dione bis oxime] | 10.5 | 0.8 |  | 18.0 | 2.8 | 0.6 | 12.1 |  |  |  |  |  |  |  |  | 
CC(C)C(=NO)C(C)NCCCNC(C)C(=NO)C(C)C (centres unmarked) [Compound 13, 5,9-Diaza-2,4,10,12-tetramethyltridecane-3,11-dione bis oxime] | 15.2 | 0.5 | 0.6 | 15.9 | 7.2 | 0.2 | 12.5 |  |  |  |  |  |  |  |  | % id/organ, Heart ([1]; 1 hr pi, mean of 3 animals): 0.2 % id/organ
CC(=NO)C(NCCCNC(C(C)=NO)c1ccccc1)c1ccccc1 (centres unmarked) [Compound 10, 4,8-Diaza-3,9-diphenylundecane-2,10-dione bis oxime] | 14.0 | 0.4 | 0.5 | 32.9 |  |  |  |  |  |  |  |  |  |  |  | % id/organ, Blood ([1]; 2 hr pi, mean of 2 animals): 2.7 % id/organ; % id/organ, Brain ([1]; 2 hr pi, mean of 2 animals): 0.6 % id/organ; % id/organ, Heart ([1]; 2 hr pi, mean of 2 animals): 0.3 % id/organ; % id/organ, Liver ([1]; 2 hr pi, mean of 2 animals): 16.9 % id/organ
CCC(CC)(CNC(C)C(C)=NO)CNC(C)C(C)=NO (centres unmarked) [Compound 7, 4,8-Diaza-6,6-diethyl-3,9-dimethylundecane-2,10-dione bis oxime] | 7.4 | 1.0 |  | 20.6 | 3.3 | 0.5 | 36.5 |  |  |  |  |  |  |  |  | 
CCC(=NO)C(C)NCC(C)(C)CNC(C)C(CC)=NO (centres unmarked) [Compound 6, 5,9-Diaza-4,7,7,10-tetramethyltridecane-3,11-dione bis oxime] | 5.8 | 1.2 | 0.4 | 19.6 |  |  |  |  |  |  |  |  |  |  |  | % id/organ, Blood ([1]; 2 hr pi, mean of 2 animals): 2.6 % id/organ; % id/organ, Brain ([1]; 2 hr pi, mean of 2 animals): 0.4 % id/organ; % id/organ, Heart ([1]; 2 hr pi, mean of 2 animals): 0.2 % id/organ; % id/organ, Liver ([1]; 2 hr pi, mean of 2 animals): 13.5 % id/organ
CCC(NCCCNC(CC)C(C)=NO)C(C)=NO (centres unmarked) [Compound 3, 4,8-Diaza-3,9-diethylundecane-2,10-dione bis oxime] | 6.8 | 1.1 | 0.2 | 27.8 |  |  |  |  |  |  |  |  |  |  |  | % id/organ, Blood ([1]; 2 hr pi, mean of 2 animals): 2.1 % id/organ; % id/organ, Brain ([1]; 2 hr pi, mean of 2 animals): 0.7 % id/organ; % id/organ, Heart ([1]; 2 hr pi, mean of 2 animals): 0.1 % id/organ; % id/organ, Liver ([1]; 2 hr pi, mean of 2 animals): 17.0 % id/organ
CC(=NO)[C@H](C)NCC(C)(C)CN[C@H](C)C(C)=NO [Compound 1 meso, meso-4,8-Diaza-3,6,6,9-tetramethylundecane-2,10-dione bis oxime] |  |  |  |  |  |  |  | 5.0 | 1.1 | 0.6 | 19.9 | 3.1 | 0.7 | 0.2 | 23.7 | % injected activity, Bladder + Urine [2]: 0.6 % injected activity; % injected activity, Brain [2]: 1.85 % injected activity; % injected activity, Kidneys [2]: 1.3 % injected activity; % injected activity, Liver [2]: 16.6 % injected activity; % id/organ, Blood ([4]; 2 min p.i.): 5.33 % id/organ; % id/organ, Brain ([4]; 2 min p.i.): 0.78 % id/organ; % id/organ, Liver ([4]; 2 min p.i.): 26.86 % id/organ; % id/organ, Blood ([4]; 1 hour p.i.): 3.17 % id/organ; % id/organ, Brain ([4]; 1 hour p.i.): 0.53 % id/organ; % id/organ, Liver ([4]; 1 hour p.i.): 24.24 % id/organ
CC(=NO)[C@H](C)NCCCN[C@@H](C)C(C)=NO (relative stereo) [Compound 2 d1] |  |  |  |  |  |  |  | 10.5 | 1.8 | 1.1 | 11.6 | 7.8 | 1.5 | 0.7 | 9.4 | difference in brain uptake, dl-isomer versus meso-isomer ([3]; in words): do not show any marked difference in brain uptake
CC(=NO)[C@H](C)NCC(C)(C)CN[C@@H](C)C(C)=NO (relative stereo) [Compound 1 d1, dl-4,8-Diaza-3,6,6,9-tetramethylundecane-2,10-dione bis oxime] |  |  |  |  |  |  |  | 11.0 | 2.1 | 1.2 | 11.3 | 8.6 | 1.6 | 0.7 | 11.9 | % injected activity, Bladder + Urine [2]: 2.28 % injected activity; % injected activity, Brain [2]: 4.22 % injected activity; % injected activity, Kidneys [2]: 3.50 % injected activity; % injected activity, Liver [2]: 10.22 % injected activity; brain retention and brain imaging, dl-isomer versus meso-isomer ([3]; in words): surprisingly superior to the complex of the meso-isomer; % id/organ, Blood ([4]; 2 min p.i.): 11.42 % id/organ; % id/organ, Brain ([4]; 2 min p.i.): 1.99 % id/organ; % id/organ, Liver ([4]; 2 min p.i.): 9.42 % id/organ; % id/organ, Blood ([4]; 1 hour p.i.): 10.17 % id/organ; % id/organ, Brain ([4]; 1 hour p.i.): 1.90 % id/organ; % id/organ, Liver ([4]; 1 hour p.i.): 9.25 % id/organ; difference in brain uptake of the two isomers (factor) ([4]; dl versus meso, the better is the dl-isomer): 2.3; percentage of injected dose, Brain [5]: 4.16 percentage of injected dose; percentage of injected dose, Kidney [5]: 3.03 percentage of injected dose; percentage of injected dose, Liver [5]: 10.73 percentage of injected dose
CCC(=NO)C(C)NCCCNC(C)C(CC)=NO (centres unmarked) [Compound 4, 5,9-Diaza-4,10-dimethyltridecane-3,11-dione bis oxime] | 13.4 | 1.6 |  | 15.6 | 5.7 | 1.5 | 12.7 |  |  |  |  |  |  |  |  | 
CC(=NO)C(C)NC(C)CC(C)NC(C)C(C)=NO (centres unmarked) [Compound 12, 4,8-Diaza-3,5,7,9-tetramethylundecane-2,10 bis oxime] | 8.6 | 1.0 | 0.5 | 23.9 | 6.0 | 0.9 | 19.7 |  |  |  |  |  |  |  |  | % id/organ, Heart ([1]; 1 hr pi, mean of 3 animals): 0.3 % id/organ
CC(=NO)[C@H](C)NCCCN[C@H](C)C(C)=NO [Compound 2 meso] |  |  |  |  |  |  |  | 6.9 | 1.7 | 0.6 | 17.9 | 2.8 | 1.4 | 0.2 | 20.7 | difference in brain uptake, dl-isomer versus meso-isomer ([3]; in words): do not show any marked difference in brain uptake
